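Following 48 hours of exposure in 96-well plates, responses at five concentrations were used to interpolate endpoints linearly. GI50 marks 50% less growth.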 Active and inactive are the calls of the source. Rule as the data show it: active = GI50 up to about 1.1 µM and inactive = higher.
What was measured:
Assay in all cases: inhibition of tumour cell growth, NCI panel, 48 h
RPMI-8226 = test system: RPMI-8226
OVCAR-8 = test system: OVCAR-8
IGROV-1 = test system: IGROV-1
SF-295 = test system: SF-295
UACC-62 = test system: UACC-62
A549 = test system: A549
DMS-273 = test system: DMS-273
SF-539 = test system: SF-539
LOX IMVI = test system: LOX IMVI
OVCAR-3 = test system: OVCAR-3
SK-OV-3 = test system: SK-OV-3
XF498 = test system: XF498
SK-MEL-5 = test system: SK-MEL-5
SW-620 = test system: SW-620
KM12 = test system: KM12
NCI-H23 = test system: NCI-H23
SN12C = test system: SN12C
CAKI-1 = test system: CAKI-1
HT-29 = test system: HT-29
MOLT-4 = test system: MOLT-4
NCI-H226 = test system: NCI-H226
SNB-19 = test system: SNB-19
DMS-114 = test system: DMS-114
SK-MEL-28 = test system: SK-MEL-28
SNB-75 = test system: SNB-75
HCT-15 = test system: HCT-15
SF-268 = test system: SF-268
M14 = test system: M14
UO-31 = test system: UO-31
UACC-257 = test system: UACC-257
TK-10 = test system: TK-10
K562 = test system: K562
COLO 205 = test system: COLO 205
NCI-H522 = test system: NCI-H522
CCRF-CEM = test system: CCRF-CEM
EKVX = test system: EKVX
HL-60 = test system: HL-60
RXF 393 = test system: RXF 393
M19-MEL = test system: M19-MEL
SR = test system: SR
PC-3 = test system: PC-3
BT-549 = test system: BT-549
OVCAR-5 = test system: OVCAR-5
A498 = test system: A498
MDA-MB-435 = test system: MDA-MB-435
Hs-578T = test system: Hs-578T
786-0 = test system: 786-0
MDA-N = test system: MDA-N
ACHN = test system: ACHN
DLD-1 = test system: DLD-1
DU-145 = test system: DU-145
MDA-MB-231 = test system: MDA-MB-231
T47D = test system: T47D

`Nc1ccc([C@H]2C(=O)N[C@H]3CCC[C@H]32)cc1` was tested, and the GI50 (RPMI-8226) was > 100 µM (inactive), the GI50 (OVCAR-8) was > 100 µM (inactive) and the GI50 (IGROV-1) was > 100 µM (inactive). For the same molecule, the GI50 (SF-295) was > 100 µM (inactive), the GI50 (UACC-62) was > 100 µM (inactive) and the GI50 (A549) was > 100 µM (inactive). The GI50 (DMS-273) was > 100 µM (inactive), the GI50 (SF-539) was > 100 µM (inactive) and the GI50 (LOX IMVI) was > 100 µM (inactive). For the same molecule, the GI50 (OVCAR-3) was > 100 µM (inactive), the GI50 (SK-OV-3) was > 100 µM (inactive) and the GI50 (XF498) was > 100 µM (inactive). For the same molecule, the GI50 (SK-MEL-5) was > 100 µM (inactive), the GI50 (SW-620) was > 100 µM (inactive) and the GI50 (KM12) was > 100 µM (inactive). The GI50 (NCI-H23) was > 100 µM (inactive), the GI50 (SN12C) was > 100 µM (inactive) and the GI50 (CAKI-1) was > 100 µM (inactive). The GI50 (HT-29) was > 100 µM (inactive), the GI50 (MOLT-4) was > 100 µM (inactive) and the GI50 (NCI-H226) was > 100 µM (inactive). The GI50 (SNB-19) was > 100 µM (inactive), the GI50 (DMS-114) was > 100 µM (inactive) and the GI50 (SK-MEL-28) was > 100 µM (inactive). For the same molecule, the GI50 (SNB-75) was > 100 µM (inactive), the GI50 (HCT-15) was > 100 µM and the GI50 (SF-268) was > 100 µM (inactive). For the same molecule, the GI50 (M14) was > 100 µM (inactive), the GI50 (UO-31) was > 100 µM (inactive) and the GI50 (UACC-257) was > 100 µM (inactive). The GI50 (TK-10) was > 100 µM (inactive), the GI50 (K562) was > 100 µM (inactive) and the GI50 (COLO 205) was > 100 µM (inactive). The GI50 (NCI-H522) was > 100 µM (inactive), the GI50 (CCRF-CEM) was > 100 µM (inactive) and the GI50 (EKVX) was > 100 µM (inactive). For the same molecule, the GI50 (HL-60) was > 100 µM (inactive), the GI50 (RXF 393) was > 100 µM (inactive) and the GI50 (M19-MEL) was > 100 µM (inactive).
`CCC/C=C/C=C/C(=O)OC1/C(=C/C(=O)OC)CC2CC(C(C)O)OC(=O)CC(O)CC3CC(OC(C)=O)C(C)(C)C(O)(CC4C/C(=C/C(=O)OC)CC(/C=C/C(C)(C)C1(O)O2)O4)O3` (stereo not given) was tested, and the GI50 (RPMI-8226) was 9.98 µM (inactive), the GI50 (SR) was > 12.5 µM (inactive) and the GI50 (PC-3) was 5.32 µM (inactive). For the same molecule, the GI50 (BT-549) was 8.57 µM (inactive), the GI50 (OVCAR-5) was > 12.5 µM (inactive) and the GI50 (A498) was 4.18 µM (inactive). The GI50 (DMS-273) was 10.6 µM (inactive), the GI50 (MDA-MB-435) was 8.47 µM (inactive) and the GI50 (SF-539) was > 12.5 µM (inactive). The GI50 (XF498) was 3.62 µM (inactive), the GI50 (Hs-578T) was 6.07 µM (inactive) and the GI50 (NCI-H23) was 9.89 µM (inactive). For the same molecule, the GI50 (786-0) was 6.25 µM (inactive), the GI50 (MDA-N) was 7.53 µM (inactive) and the GI50 (ACHN) was 3.34 µM (inactive). For the same molecule, the GI50 (DLD-1) was > 10.9 µM (inactive), the GI50 (NCI-H226) was > 12.5 µM (inactive) and the GI50 (DU-145) was > 12.5 µM (inactive). For the same molecule, the GI50 (MDA-MB-231) was 6.22 µM (inactive), the GI50 (SNB-19) was > 12.5 µM (inactive) and the GI50 (SK-MEL-28) was 9.98 µM (inactive). The GI50 (SF-268) was 6.95 µM (inactive), the GI50 (M14) was > 11 µM (inactive) and the GI50 (TK-10) was > 12.5 µM (inactive). For the same molecule, the GI50 (NCI-H522) was > 12.5 µM (inactive) and the GI50 (T47D) was 7.01 µM (inactive).

Source: ChEMBL document CHEMBL1201862, “PubChem BioAssay data set” (2004)
